Assay: 3-Month stability data for TTI-101 Batches B, C, D and E stored at 40° C./75% RH
Assay type: physicochemical
Protocol: Exemplary HPLC conditions: diluent was 0.1% trifluoroacetic acid (TFA) in acetonitrile, Mobile Phase A was 0.05% TFA in water, and Mobile Phase B was 0.05% TFA in acetonitrile, column (Agilent, Eclipse XDB-C18, 3.0×100 mm, particle size 1.8 μm), flow (0.425 mL/min), and detector (280 nm diode array).
Batches B, C, and D were prepared according to Method 5, Method 4, and Method 3, respectively, as described in Example 1. Batch E was prepared analogously using according to Method 1 as described in Example 1.
Samples of TTI-101 (Batches B, C, D, and E) were stored at 40° C./75% RH for 3 months. The batches were individually stored in an low density polyethylene (LDPE) bag enclosed with a Nylon cable tie and then transferred to another LDPE bag and enclosed with a Nylon cable tie. The enclosure was put into a high density polyethylene (HDPE) bottle and closed with a polyethylene-lined polypropylene cap. For Batch B only, another sample was enclosed in a screw-top amber glass bottle and closed with a cap. The samples were stored under the above-identified conditions.

COc1ccc(S(=O)(=O)Nc2cc(-c3c(O)ccc4ccccc34)c(O)c3ccccc23)cc1 [TTI-101]
Impurity RRT 0.84, Area % (0 M): NQ (≥0.02% and <0.05%) | Impurity RRT 0.87, Area % (0 M): NQ (≥0.02% and <0.05%) | Impurity RRT 1.06 (Cmp 4), Area % (0 M): NQ (≥0.02% and <0.05%) | Impurities Total, Area % (0 M, listed as Batch C): 0.4 Area % | Impurity RRT 0.99, Area % (0 M, listed as Batch C): 0.06 Area % | Impurity RRT 1.16 (Cmp 6), Area % (0 M, listed as Batch C): 0.31 Area % | Impurities Total, Area % (0 M, listed as Batch D): 0.1 Area % | Impurity RRT 1.16 (Cmp 6), Area % (0 M, listed as Batch D): 0.10 Area % | Impurities Total, Area % (0 M, listed as Batch E): 0.1 Area % | Impurity RRT 1.16 (Cmp 6), Area % (0 M, listed as Batch E): 0.10 Area % | Impurities Total, Area % (1 M, listed as Batch C): 0.1 Area % | Impurity RRT 0.99, Area % (1 M, listed as Batch C): NQ (≥0.02% and <0.05%) | Impurity RRT 1.17 (Cmp 6), Area % (1 M, listed as Batch C): 0.12 Area % | Impurities Total, Area % (1 M, listed as Batch D): 0.1 Area % | Impurity RRT 1.17 (Cmp 6), Area % (1 M, listed as Batch D): 0.09 Area % | Impurities Total, Area % (1 M, listed as Batch E): 0.1 Area % | Impurity RRT 0.99, Area % (1 M, listed as Batch E): NQ (≥0.02% and <0.05%) | Impurity RRT 1.17 (Cmp 6), Area % (1 M, listed as Batch E): 0.09 Area % | Impurity RRT 0.99, Area % (2 M): NQ (≥0.02% and <0.05%) | Impurity RRT 1.06 (Cmp 4), Area % (2 M): NQ (≥0.02% and <0.05%) | Impurities Total, Area % (2 M, listed as Batch C): 0.1 Area % | Impurity RRT 1.17 (Cmp 6), Area % (2 M, listed as Batch C): 0.13 Area % | Impurities Total, Area % (2 M, listed as Batch D): 0.1 Area % | Impurity RRT 1.17 (Cmp 6), Area % (2 M, listed as Batch D): 0.09 Area % | Impurities Total, Area % (2 M, listed as Batch E): 0.1 Area % | Impurity RRT 1.17 (Cmp 6), Area % (2 M, listed as Batch E): 0.09 Area % | Impurity RRT 0.95, Area % (3 M): NQ (≥0.02% and <0.05%) | Impurity RRT 0.98, Area % (3 M): NQ (≥0.02% and <0.05%) | Impurity RRT 1.06 (Cmp 4), Area % (3 M): NQ (≥0.02% and <0.05%) | Impurities Total, Area % (3 M, listed as Batch C): 0.3 Area % | Impurity RRT 1.16 (Cmp 6), Area % (3 M, listed as Batch C): 0.31 Area % | Impurities Total, Area % (3 M, listed as Batch D): 0.1 Area % | Impurity RRT 1.16 (Cmp 6), Area % (3 M, listed as Batch D): 0.11 Area % | Impurities Total, Area % (3 M, listed as Batch E): 0.2 Area % | Impurity RRT 1.16 (Cmp 6), Area % (3 M, listed as Batch E): 0.16 Area % | Purity (%) (T = 0 month (0 M), listed as Batch C): 99.6% | Purity (%) (T = 0 month (0 M), listed as Batch D): 99.9% | Purity (%) (T = 0 month (0 M), listed as Batch E): 99.9% | Purity (%) (T = 1 month (1 M), listed as Batch C): 99.8% | Purity (%) (T = 1 month (1 M), listed as Batch D): 99.9% | Purity (%) (T = 1 month (1 M), listed as Batch E): 99.9% | Purity (%) (T = 2 months (2 M), listed as Batch C): 99.8% | Purity (%) (T = 2 months (2 M), listed as Batch D): 99.9% | Purity (%) (T = 2 months (2 M), listed as Batch E): 99.9% | Purity (%) (T = 3 months (3 M), listed as Batch C): 99.6% | Purity (%) (T = 3 months (3 M), listed as Batch D): 99.9% | Purity (%) (T = 3 months (3 M), listed as Batch E): 99.8%

Source: patent US20240033234A1, “THERAPEUTIC COMPOUNDS, FORMULATIONS, AND USE THEREOF” (Tvardi Therapeutics, Inc., priority 2022, published 2024)
